Consider 17 compounds from patent US20240174634A1, “Aldehyde Dehydrogenase Inhibitors and Their Therapeutic Use” (priority 2020, published 2024).

Assay [1] addresses T1, ALDH1A3 (Homo sapiens, UniProt P47895).
T1 sequence (P47895 1-512): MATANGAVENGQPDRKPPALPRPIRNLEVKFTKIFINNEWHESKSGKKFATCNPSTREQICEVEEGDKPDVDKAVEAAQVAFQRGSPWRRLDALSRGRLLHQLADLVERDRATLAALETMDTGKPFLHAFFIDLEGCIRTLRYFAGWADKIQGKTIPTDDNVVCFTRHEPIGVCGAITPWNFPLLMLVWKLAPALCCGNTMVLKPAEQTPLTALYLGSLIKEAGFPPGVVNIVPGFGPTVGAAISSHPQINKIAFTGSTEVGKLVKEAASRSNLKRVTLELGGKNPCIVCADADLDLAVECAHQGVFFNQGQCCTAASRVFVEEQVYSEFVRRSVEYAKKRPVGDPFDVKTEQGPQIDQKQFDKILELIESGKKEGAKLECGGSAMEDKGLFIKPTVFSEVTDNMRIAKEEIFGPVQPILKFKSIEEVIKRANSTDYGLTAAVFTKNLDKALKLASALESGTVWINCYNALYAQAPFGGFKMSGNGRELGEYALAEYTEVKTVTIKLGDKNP
The assay can be described thus: Primary biochemical assay, NAD(P)H-Glo Detection System. On the set-up: His-tag; made in house; host or cells: E. coli Rosetta (DE3). The settings on record: 30 min pre-incubation, propionaldehyde and NAD at Km. The source says:
(§1) Cloning: Open reading frames corresponding to the protein coding sequences of full length human ALDH1A1 (Uniprot ID P00352), ALDH1A2 (094788) and ALDH1A3 (P47895) were polymerase chain reaction (PCR) amplified from human cDNA and inserted into the multi-cloning sites of the commercially available (Novagen) E. coli expression vectors pET47b (ALDH1A1, EcoRI restriction site; ALDH1A2, BamHI and EcoRI sites) or pET28a (ALDH1A3, NdeI and BamHI sites), using standard molecular genetic techniques. Recombinant DNA products were sequence verified prior to use in expression studies.
(§2) Expression: Expression constructs were transformed into the E. coli strain Rosetta (DE3) (Merck) and individual colonies used to inoculate 10 mL lysogen broth (LB) medium supplemented with kanamycin and chloramphenicol at 50 μg/mL and 34 μg/mL, respectively. Cultures were grown to saturation overnight at 37° C., prior to being used to sub-inoculate fresh 1 L LB medium cultures (plus antibiotics, as before). 1 L cultures were grown at 37° C., 200 rpm, throughout the day until the optical density at 600 nm (OD600) reached ˜0.8, at which point growth temperature was reduced to 18° C. and 1 mM isopropyl β-d-1-thiogalacto pyranoside (IPTG) added to induce protein expression.
(§3) Cultures were left overnight (at least 16 h) under these conditions and the following day harvested by centrifugation (4000 G, 10 minutes). Culture supernatant was discarded and cell pellets stored at −80° C. until further processing.
(§4) Purification: Cell pellets were thawed on ice, re-suspended in Ni Affinity Buffer A (20 mM HEPES pH 7.5, 300 mM NaCl, 20 mM imidazole, 1 mM tris(2-carboxyethyl)phosphine (TCEP)) with protease inhibitors (cOmplete Ultra protease inhibitor, Roche), and lysed by sonication. Lysates were clarified by centrifugation at 18,000 G, 4° C., for 40 minutes, and loaded directly onto a pre-equilibrated (Buffer A) 5 mL HisTrap Fast Flow column (GE Healthcare) by way of an AKTA Fast Protein Liquid Chromatography (FPLC) system. The column was sequentially treated with 6 column volumes (CV) 100% Buffer A, 8 CV of 90% Buffer A:10% Buffer B (20 mM 4-(2-hydroxyethyl)-1-piperazineethanesulfonic acid (HEPES) pH 7.5, 300 mM NaCl, 500 mM imidazole, 1 mM TCEP) and finally a linear gradient from 10-70% Buffer B over 8 CV to elute recombinant His-tagged protein. Relevant fractions (as measured by 280 nm absorbance) collected during elution were pooled and subjected to further purification by size exclusion chromatography (Superdex 200 26/600, GE Healthcare, running buffer 20 mM 2-(carbamoylmethylamino)ethanesulfonic acid (ACES) pH 7.5, 1 mM TCEP). Relevant fractions from this step were pooled, aliquoted, and stored at −80° C. until required for compound profiling assays.
(§5) Materials: ALDH2 was purchased from Abnova. Tris(hydroxymethyl)aminomethane (Tris) was purchased from MP Biomedicals. TCEP, ethylenediaminetetraacetic acid (EDTA), propionaldehyde, DMSO and Tween-20 were purchased from Sigma. Nicotinamide adenine dinucleotide (NAD) was obtained from Abcam. The NAD(P)H-Glo™ Detection System was purchased from Promega. White, non-binding surface, 384 well plates were supplied by Corning (#3574).
(§6) Method: Inhibition of ALDH1A3 was assessed using the NAD(P)H-Glo™ Detection System (Cat. No. G9062) from Promega. This assay detects the production of NADH from NAD by ALDH1A3 via the coupled enzymatic conversion of a proluciferin reductase substrate to generate a luminescent signal. Inhibition of ALDH1A3 by small molecule inhibitors will result in reduction or abrogation of luminescence signal increase above background. Inhibition of ALDH1A1, ALDH1A2 and ALDH2 (selectivity assays) were assessed using the same assay.
(§7) Compounds were dosed into Corning 384 well assay plates using an Echo acoustic dispenser to give 10 point curves in a 3-fold dilution series. Compounds were dispensed from a 20 mM DMSO stock and initially screened at a top concentration of 20 μM (ALDH1A3) or 250 μM (ALDH1A1, ALDH1A2 & ALDH2). […]

Assay [2] has as its target T2, ALDH1A1 (Homo sapiens, UniProt P00352).
T2 construct: His-tag; made in house; host or cells: E. coli Rosetta (DE3)
T2 sequence (P00352 1-501): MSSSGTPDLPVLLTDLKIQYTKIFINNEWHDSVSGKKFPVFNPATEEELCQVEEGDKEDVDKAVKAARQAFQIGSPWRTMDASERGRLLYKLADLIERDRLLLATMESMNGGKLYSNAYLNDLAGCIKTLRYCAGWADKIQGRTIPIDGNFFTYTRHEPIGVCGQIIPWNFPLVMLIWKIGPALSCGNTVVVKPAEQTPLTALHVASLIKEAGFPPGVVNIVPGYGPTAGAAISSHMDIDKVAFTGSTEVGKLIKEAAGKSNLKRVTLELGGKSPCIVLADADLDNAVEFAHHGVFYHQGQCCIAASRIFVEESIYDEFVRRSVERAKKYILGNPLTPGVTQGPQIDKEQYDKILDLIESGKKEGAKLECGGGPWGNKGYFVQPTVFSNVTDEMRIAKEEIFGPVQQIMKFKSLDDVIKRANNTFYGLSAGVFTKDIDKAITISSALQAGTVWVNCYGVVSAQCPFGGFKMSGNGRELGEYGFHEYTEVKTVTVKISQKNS
The assay can be described thus: Selectivity biochemical assay, NAD(P)H-Glo Detection System.
Source text: as §1, §2, §3, §4, §5, §6, §7

For `Cc1onc(-c2cccc(F)c2)c1C(=O)Nc1ccc2c(c1)CCC(=O)N2` [ALDHI-1009, 3-(3-fluorophenyl)-5-methyl-N-(2-oxo-3,4-dihydro-1H-quinolin-6-yl)isoxazole-4-carboxamide], the IC50 in assay [1] is 1 to 10 µM; in assay [2] it was at least 100 µM.
Regarding `O=C1CCc2cc(NC(=O)c3scnc3-c3cccc(C(F)(F)F)c3)ccc2N1` [ALDHI-1015, N-(2-oxo-3,4-dihydro-1H-quinolin-6-yl)-4-[3-(trifluoromethyl)phenyl]thiazole-5-carboxamide], the IC50 in assay [1] was 1 to 10 µM; in assay [2] it was at least 100 µM.
As for `O=C1CCc2cc(NC(=O)c3scnc3-c3cc(F)cc(F)c3)ccc2N1` [ALDHI-1024, 4-(3,5-difluorophenyl)-N-(2-oxo-3,4-dihydro-1H-quinolin-6-yl)thiazole-5-carboxamide], the results for the IC50 in assay [1] and in assay [2] were below 0.1 µM and at least 100 µM, respectively.
With `O=C1CCc2cc(NC(=O)c3scnc3-c3cccc(F)c3)c(F)cc2N1` [ALDHI-1025, N-(7-fluoro-2-oxo-3,4-dihydro-1H-quinolin-6-yl)-4-(3-fluorophenyl)thiazole-5-carboxamide], the IC50 in assay [1] was below 0.1 µM; in assay [2], at least 100 µM.
For `Cc1nc(-c2cccc(F)c2)c(C(=O)Nc2ccc3c(c2)CCC(=O)N3)s1` [ALDHI-1026, 4-(3-fluorophenyl)-2-methyl-N-(2-oxo-3,4-dihydro-1H-quinolin-6-yl)thiazole-5-carboxamide] the same measures were below 0.1 µM and at least 100 µM.
In the same order, the values of `Cc1nn(C)cc1C1CCCN1CCOc1ccc2c(c1)CCC(=O)N2` (stereo not shown) [ALDHI-2015, 6-[2-[2-(1,3-dimethylpyrazol-4-yl)pyrrolidin-1-yl]ethoxy]-3,4-dihydro-1H-quinolin-2-one] are 1 to 10 µM and at least 100 µM.
For `Cn1cccc1C1CCCN1CCOc1ccc2c(c1)CCC(=O)N2` (stereo not shown) [ALDHI-2017, 6-[2-[2-(1-methylpyrrol-2-yl)pyrrolidin-1-yl]ethoxy]-3,4-dihydro-1H-quinolin-2-one] the same measures were 1 to 10 µM and at least 100 µM.
Regarding `Cn1cc(C2CCCN2CCOc2ccc3c(c2)OCC(=O)N3)cn1` (stereo not shown) [ALDHI-2024, 7-[2-[2-(1-methylpyrazol-4-yl)pyrrolidin-1-yl]ethoxy]-4H-1,4-benzoxazin-3-one], the half-inhibitory concentration (IC50) in assay [1] was 1 to 10 µM; in assay [2], at least 100 µM.
As to `O=C1COc2cc(OCCN3CCCC3c3ccccn3)ccc2N1` (stereo not shown) [ALDHI-2025, 7-[2-[2-(2-pyridyl)pyrrolidin-1-yl]ethoxy]-4H-1,4-benzoxazin-3-one], the IC50 was 1 to 10 µM in assay [1] and at least 100 µM in assay [2].
In the same order, the values of `O=C1CCc2cc(OCCN3CCNCC3c3ccccc3)ccc2N1` (stereo not shown) [ALDHI-2036, 6-[2-(2-phenylpiperazin-1-yl)ethoxy]-3,4-dihydro-1H-quinolin-2-one] are 1 to 10 µM and at least 100 µM.
For `CS(=O)(=O)N1CCN(CCOc2ccc3c(c2)CCC(=O)N3)C(c2ccccc2)C1` (stereo not shown) [ALDHI-2046, 6-[2-(4-methylsulfonyl-2-phenyl-piperazin-1-yl)ethoxy]-3,4-dihydro-1H-quinolin-2-one] the same measures were 1 to 10 µM and 10 to 100 µM.
For `CCCC1Oc2cc(OCCN3CCCC3c3cccc(F)c3)ccc2NC1=O` (stereo not shown) [ALDHI-2047, 7-[2-[2-(3-fluorophenyl)pyrrolidin-1-yl]ethoxy]-2-propyl-4H-1,4-benzoxazin-3-one] the same measures were 1 to 10 µM and at least 100 µM.
Take `CC(C)C1Oc2cc(OCCN3CCCC3c3cccc(F)c3)ccc2NC1=O` (stereo not shown) [ALDHI-2049, 7-[2-[2-(3-fluorophenyl)pyrrolidin-1-yl]ethoxy]-2-isopropyl-4H-1,4-benzoxazin-3-one]: the IC50 in assay [1] was 1 to 10 µM; in assay [2] it was at least 100 µM.
In the same order, the values of `CN(CCOc1ccc2c(c1)CCC(=O)N2)Cc1cnn(C)c1` [ALDHI-3009, 6-[2-[methyl-[(1-methylpyrazol-4-yl)methyl]amino]ethoxy]-3,4-dihydro-1H-quinolin-2-one] are 1 to 10 µM and 10 to 100 µM.
In the same order, the values of `Cn1cc(CN(CCO)CCOc2ccc3c(c2)CCC(=O)N3)cn1` [ALDHI-3011, 6-[2-[2-hydroxyethyl-[(1-methylpyrazol-4-yl)methyl]amino]ethoxy]-3,4-dihydro-1H-quinolin-2-one] are 1 to 10 µM and 10 to 100 µM.
For `CN(CCOc1ccc2c(c1)CCC(=O)N2)Cc1ccccn1` [ALDHI-3012, 6-[2-[methyl(2-pyridylmethyl)amino]ethoxy]-3,4-dihydro-1H-quinolin-2-one] the same measures were 1 to 10 µM and at least 100 µM.
Turning to `CN(CCOc1ccc2c(c1)CCC(=O)N2)Cc1ccncc1` [ALDHI-3014, 6-[2-[methyl(4-pyridylmethyl)amino]ethoxy]-3,4-dihydro-1H-quinolin-2-one], the figures for the concentration for half-maximal inhibition (IC50) in assay [1] and in assay [2] were 1 to 10 µM and at least 100 µM, respectively.
